Results reported in patent publication US20250074919A1, “Heteroaryl compounds as inhibitors of irak4, compositions and applications thereof” (Accro Bioscience (HK) Limited, priority 2021, published 2025).
Structures can show the parent of a compound that is named as a salt. Where two headings read alike, the source gives them in different places.

Target: IRAK4 (Homo sapiens (Human), UniProt Q9NWZ3)
Assay: Screening the compounds against IRAK4 with ATP (Caliper, FAM-labeled peptide)
Assay type: biochemical
Settings: for IC50: read-out: IC50 (nM) (10 μM ATP); for activity, times better than that of the positive control compound CA4948: IRAK4 kinase inhibition relative to CA4948
Procedure: Prepare Ix kinase base buffer and stop buffer for testing kinases: (1) base buffer: 50 mM HEPES (pH 7.5), 0.0015% Brij-35; (2) stop buffer: 100 mM HEPES (pH 7.5), 0.015% Brij-35, 0.2% Coating Reagent #3, 50 mM EDTA. Then prepare compounds for testing: Dilute the compound to 50× of the final desired highest inhibitor concentration in reaction by 100% DMSO. Transfer 100 μL of this compound dilution to a well in a 96-well plate (source plate).
Serially dilute the compounds by 3-fold for a total of 10 points. Transfer 10 μL of the compound from the source plate to a new 96-well plate (intermediate plate) and add 90 μL of Ix kinase buffer. Shake the mixture on the intermediate plate for 10 min. Transfer 5 μL of each well from the 96-well intermediate plate to a 384-well plate in duplicates. Add 10 μL of 2.5× enzyme solution to each well of the 384-well assay plate and incubate at room temperature for 10 min. Add 10 μL, of 2.5×FAM-labeled peptide and ATP solution and incubate at 28° C. for a period of time. Finally stop the reaction by adding 30 μL of stop buffer and collect data on Caliper to obtain the IC50.

Chain of IRAK4 (Q9NWZ3 whole entry): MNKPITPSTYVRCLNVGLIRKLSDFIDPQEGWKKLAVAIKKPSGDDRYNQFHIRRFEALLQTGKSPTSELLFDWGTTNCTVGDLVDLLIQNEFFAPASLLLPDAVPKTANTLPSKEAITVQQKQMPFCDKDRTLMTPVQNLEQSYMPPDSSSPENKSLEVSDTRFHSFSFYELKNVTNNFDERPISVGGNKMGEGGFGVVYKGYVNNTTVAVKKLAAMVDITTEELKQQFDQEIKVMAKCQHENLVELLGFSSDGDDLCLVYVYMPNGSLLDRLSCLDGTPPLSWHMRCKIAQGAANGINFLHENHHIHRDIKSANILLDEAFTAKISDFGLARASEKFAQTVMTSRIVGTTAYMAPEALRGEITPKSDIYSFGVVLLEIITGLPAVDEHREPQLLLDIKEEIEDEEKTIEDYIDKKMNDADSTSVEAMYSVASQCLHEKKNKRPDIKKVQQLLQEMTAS

COC1CCN(c2nc3nc(N4CCNCC4)oc3cc2C(=O)Nc2cccc(-c3cnn(C)c3)n2)CC1 [Compound A51, 5-(4-Methoxypiperidin-1-yl)-N-(6-(1-methyl-1H-pyrazol-4-yl)pyridin-2-yl)-2-(piperazin-1-yl)oxazolo[4,5-b]pyridine-6-carboxamide Hydrochloride]
IC50: 7 nM

Cn1cc(-c2cccc(NC(=O)c3cc4oc(N5CCOCC5)nc4nc3N3CC4(CC(O)C4)C3)n2)cn1 [Compound A22, 5-(6-Hydroxy-2-azaspiro[3.3]heptan-2-yl)-N-(6-(1-methyl-1H-pyrazol-4-yl)pyridin-2-yl)-2-morpholinooxazolo[4,5-b]pyridine-6-carboxamide]
IC50 (IRAK4 kinase, 10 μM ATP): 188 nM

Cn1cc(-c2cccc(NC(=O)c3cc4c(nc3OC3COC3)OC(C)(C)C4)n2)cn1 [Compound B16, 2,2-Dimethyl-N-(6-(1-methyl-1H-pyrazol-4-yl)pyridin-2-yl)-6-(oxetan-3-yloxy)-2,3-dihydrofuro[2,3-b]pyridine-5-carboxamide]
IC50 (IRAK4 kinase, 10 μM ATP): 11 nM

COc1cccc(NC(=O)c2cc3oc(N4CCOCC4)nc3nc2N2CCC(O)CC2)n1 [Compound A43, 5-(4-Hydroxypiperidin-1-yl)-N-(6-methoxypyridin-2-yl)-2-morpholinooxazolo[4,5-b]pyridine-6-carboxamide]
IC50 (IRAK4 kinase, 10 μM ATP): 137 nM

CC1(C)Cc2cc(C(=O)Nc3cccn(C4CC4)c3=O)c(N3CCC(O)CC3)nc2O1 [Compound B10, N-(1-Cyclopropyl-2-oxo-1,2-dihydropyridin-3-yl)-6-(4-hydroxypiperidin-1-yl)-2,2-dimethyl-2,3-dihydrofuro[2,3-b]pyridine-5-carboxamide]
IC50: 479 nM

Cn1cc(-c2cccc(NC(=O)c3cc4c(nc3OC3CNC(=O)OC3)OC(C)(C)C4)n2)cn1 (stereo not drawn) [Compound B28, 2,2-Dimethyl-N-(6-(1-methyl-1H-pyrazol-4-yl)pyridin-2-yl)-6-((2-oxo-1,3-oxazinan-5-yl)oxy)-2,3-dihydrofuro[2,3-b]pyridine-5-carboxamide]
IC50 (IRAK4 kinase, 10 μM ATP): 248 nM

CC1CN(c2nc3nc(N4CCOCC4)oc3cc2C(=O)Nc2cccc(-c3cnn(C)c3)n2)CCN1C (stereo not drawn) [Compound A30, 5-(3,4-Dimethylpiperazin-1-yl)-N-(6-(1-methyl-1H-pyrazol-4-yl)pyridin-2-yl)-2-morpholinooxazolo[4,5-b]pyridine-6-carboxamide Hydrochloride]
IC50 (IRAK4 kinase, 10 μM ATP): 125 nM

Cn1cc(-c2cccc(NC(=O)c3cc4c(nc3OC3CC3)OC(C)(C)C4)n2)cn1 [Compound B29, 6-Cyclopropoxy-2,2-dimethyl-N-(6-(1-methyl-1H-pyrazol-4-yl)pyridin-2-yl)-2,3-dihydrofuro[2,3-b]pyridine-5-carboxamide]
activity, times better than that of the positive control compound CA4948: more than 10 times
IC50 (IRAK4 kinase, 10 μM ATP): 6.2 nM

COC1CCN(c2nc3c(cc2C(=O)Nc2cccc(-c4cnn(C)c4)n2)CC(C)(C)O3)CC1 [Compound B1, 6-(4-Methoxypiperidin-1-yl)-2,2-dimethyl-N-(6-(1-methyl-1H-pyrazol-4-yl)pyridin-2-yl)-2,3-dihydrofuro[2,3-b]pyridine-5-carboxamide]
activity, times better than that of the positive control compound CA4948: more than 25 times
IC50 (IRAK4 kinase, 10 μM ATP): 4.5 nM

Cn1cc(-c2cccc(NC(=O)c3cc4oc(N5CCOCC5)nc4nc3N3CCC4(CCO4)CC3)n2)cn1 [Compound A26, N-(6-(1-Methyl-1H-pyrazol-4-yl)pyridin-2-yl)-2-morpholino-5-(1-oxa-7-azaspiro[3.5]nonan-7-yl)oxazolo[4,5-b]pyridine-6-carboxamide]
activity, times better than that of the positive control compound CA4948: more than 25 times
IC50: 4.2 nM

N#Cc1cccc(NC(=O)c2cc3oc(N4CCOCC4)nc3nc2N2CCC(O)CC2)n1 [Compound A42, N-(6-Cyanopyridin-2-yl)-5-(4-hydroxypiperidin-1-yl)-2-morpholinooxazolo[4,5-b]pyridine-6-carboxamide]
IC50 (IRAK4 kinase, 10 μM ATP): 87 nM

Cn1cc(-c2cccc(NC(=O)c3cc4c(nc3N3CCC(C)(O)CC3)OC(C)(C)C4)n2)cn1 [Compound B7, 6-(4-Hydroxy-4-methylpiperidin-1-yl)-2,2-dimethyl-N-(6-(1-methyl-1H-pyrazol-4-yl)pyridin-2-yl)-2,3-dihydrofuro[2,3-b]pyridine-5-carboxamide]
IC50 (IRAK4 kinase, 10 μM ATP): 11 nM

CN1CCN(c2nc3c(cc2C(=O)Nc2cccc(-c4cnn(C)c4)n2)CC(C)(C)O3)CC1 [Compound B2, 2,2-Dimethyl-N-(6-(1-methyl-1H-pyrazol-4-yl)pyridin-2-yl)-6-(4-methylpiperazin-1-yl)-2,3-dihydrofuro[2,3-b]pyridine-5-carboxamide]
IC50 (IRAK4 kinase, 10 μM ATP): 54 nM

Cn1cc(-c2cccc(NC(=O)c3cc4oc(N5CCNCC5)nc4nc3N3CCC(C)(O)CC3)n2)cn1 [Compound A56, 5-(4-Hydroxy-4-methylpiperidin-1-yl)-N-(6-(1-methyl-1H-pyrazol-4-yl)pyridin-2-yl)-2-(piperazin-1-yl)oxazolo[4,5-b]pyridine-6-carboxamide]
IC50 (IRAK4 kinase, 10 μM ATP): 7.8 nM

COc1nc2c(cc1C(=O)Nc1cccc(-c3cnn(C)c3)n1)CC(C)(C)O2 [Compound B11, 6-Methoxy-2,2-dimethyl-N-(6-(1-methyl-1H-pyrazol-4-yl)pyridin-2-yl)-2,3-dihydrofuro[2,3-b]pyridine-5-carboxamide]
IC50 (IRAK4 kinase, 10 μM ATP): 50 nM

COc1ncccc1NC(=O)c1cc2oc(N3CCOCC3)nc2nc1N1CCC(OC)CC1 [Compound A50, 5-(4-Methoxypiperidin-1-yl)-N-(2-methoxypyridin-3-yl)-2-morpholinooxazolo[4,5-b]pyridine-6-carboxamide]
IC50 (IRAK4 kinase, 10 μM ATP): 98 nM

Cn1cc(-c2cccc(NC(=O)c3cc4oc(N5CCOCC5)nc4nc3N3CC4(CCOC4)C3)n2)cn1 [Compound A18, N-(6-(1-Methyl-1H-pyrazol-4-yl)pyridin-2-yl)-2-morpholino-5-(6-oxa-2-azaspiro[3.4]octan-2-yl)oxazolo[4,5-b]pyridine-6-carboxamide]
IC50 (IRAK4 kinase, 10 μM ATP): 221 nM

Cn1cc(-c2cccc(NC(=O)c3cc4oc(N5CCOCC5)nc4nc3N3CCC(F)(F)C3)n2)cn1 [Compound A12, 5-(3,3-Difluoropyrrolidin-1-yl)-N-(6-(1-methyl-1H-pyrazol-4-yl)pyridin-2-yl)-2-morpholinooxazolo[4,5-b]pyridine-6-carboxamide]
IC50 (IRAK4 kinase, 10 μM ATP): 33 nM

CN1CCN(c2nc3nc(N4CCC5(CCO5)CC4)c(C(=O)Nc4cccc(-c5cnn(C)c5)n4)cc3o2)CC1 [Compound A58, N-(6-(1-Methyl-1H-pyrazol-4-yl)pyridin-2-yl)-2-(4-methylpiperazin-1-yl)-5-(1-oxa-7-azaspiro[3.5]nonan-7-yl)oxazolo[4,5-b]pyridine-6-carboxamide]
IC50 (IRAK4 kinase, 10 μM ATP): 4.9 nM

Cn1cc(-c2cccc(NC(=O)c3cc4oc(N5CCOCC5)nc4nc3N3CCC(C)(O)CC3)n2)cn1 [Compound A25, 5-(4-Hydroxy-4-methylpiperidin-1-yl)-N-(6-(1-methyl-1H-pyrazol-4-yl)pyridin-2-yl)-2-morpholinooxazolo[4,5-b]pyridine-6-carboxamide]
activity, times better than that of the positive control compound CA4948: more than 10 times
IC50 (IRAK4 kinase, 10 μM ATP): 8.6 nM

COc1cccc(NC(=O)c2cc3oc(N4CCOCC4)nc3nc2N2CCC(OC)CC2)n1 [Compound A46, 5-(4-Methoxypiperidin-1-yl)-N-(6-methoxypyridin-2-yl)-2-morpholinooxazolo[4,5-b]pyridine-6-carboxamide]
IC50 (IRAK4 kinase, 10 μM ATP): 179 nM

Cn1cc(-c2cccc(NC(=O)c3cc4c(nc3OCC3CC3)OC(C)(C)C4)n2)cn1 [Compound B24, 6-(Cyclopropylmethoxy)-2,2-dimethyl-N-(6-(1-methyl-1H-pyrazol-4-yl)pyridin-2-yl)-2,3-dihydrofuro[2,3-b]pyridine-5-carboxamide]
IC50 (IRAK4 kinase, 10 μM ATP): 11 nM

Cn1cc(-c2cccc(NC(=O)c3cc4oc(N5CCOCC5)nc4nc3N3CCC(F)(F)CC3)n2)cn1 [Compound A11, 5-(4,4-Difluoropiperidin-1-yl)-N-(6-(1-methyl-1H-pyrazol-4-yl)pyridin-2-yl)-2-morpholinooxazolo[4,5-b]pyridine-6-carboxamide]
activity, times better than that of the positive control compound CA4948: more than 5 times
IC50 (IRAK4 kinase, 10 μM ATP): 22 nM

Cn1cc(-c2cccc(NC(=O)c3cc4c(nc3N3CCN(CCO)CC3)OC(C)(C)C4)n2)cn1 [Compound B3, 6-(4-(2-Hydroxyethyl)piperazin-1-yl)-2,2-dimethyl-N-(6-(1-methyl-1H-pyrazol-4-yl)pyridin-2-yl)-2,3-dihydrofuro[2,3-b]pyridine-5-carboxamide]
IC50 (IRAK4 kinase, 10 μM ATP): 31 nM

Cn1cc(-c2cccc(NC(=O)c3cc4c(nc3OC3CCNC3)OC(C)(C)C4)n2)cn1 (stereo not drawn) [Compound B22, 2,2-Dimethyl-N-(6-(1-methyl-1H-pyrazol-4-yl)pyridin-2-yl)-6-(pyrrolidin-3-yloxy)-2,3-dihydrofuro[2,3-b]pyridine-5-carboxamide]
IC50 (IRAK4 kinase, 10 μM ATP): 354 nM

Cn1cc(-c2cccc(NC(=O)c3cc4oc(N5CCOCC5)nc4nc3N3C4CCC3CC(O)C4)n2)cn1 (stereo not drawn) [Compound A28, 5-(3-Hydroxy-8-azabicyclo[3.2.1]octan-8-yl)-N-(6-(1-methyl-1H-pyrazol-4-yl)pyridin-2-yl)-2-morpholinooxazolo[4,5-b]pyridine-6-carboxamide]
IC50 (IRAK4 kinase, 10 μM ATP): 80 nM

Cl.Cn1cc(-c2cccc(NC(=O)c3cc4oc(N5CCOCC5)nc4nc3N3CCN(C4CC4)CC3)n2)cn1 [Compound A35, 5-(4-Cyclopropylpiperazin-1-yl)-N-(6-(1-methyl-1H-pyrazol-4-yl)pyridin-2-yl)-2-morpholinooxazolo[4,5-b]pyridine-6-carboxamide Hydrochloride]
activity, times better than that of the positive control compound CA4948: more than 10 times
IC50 (IRAK4 kinase, 10 μM ATP): 8.9 nM
